The text below walks through data of US8013156B2 (Exelixis, Inc., priority 2003, dated 2011).

Tie-2, sequence (Q02763 23-1124): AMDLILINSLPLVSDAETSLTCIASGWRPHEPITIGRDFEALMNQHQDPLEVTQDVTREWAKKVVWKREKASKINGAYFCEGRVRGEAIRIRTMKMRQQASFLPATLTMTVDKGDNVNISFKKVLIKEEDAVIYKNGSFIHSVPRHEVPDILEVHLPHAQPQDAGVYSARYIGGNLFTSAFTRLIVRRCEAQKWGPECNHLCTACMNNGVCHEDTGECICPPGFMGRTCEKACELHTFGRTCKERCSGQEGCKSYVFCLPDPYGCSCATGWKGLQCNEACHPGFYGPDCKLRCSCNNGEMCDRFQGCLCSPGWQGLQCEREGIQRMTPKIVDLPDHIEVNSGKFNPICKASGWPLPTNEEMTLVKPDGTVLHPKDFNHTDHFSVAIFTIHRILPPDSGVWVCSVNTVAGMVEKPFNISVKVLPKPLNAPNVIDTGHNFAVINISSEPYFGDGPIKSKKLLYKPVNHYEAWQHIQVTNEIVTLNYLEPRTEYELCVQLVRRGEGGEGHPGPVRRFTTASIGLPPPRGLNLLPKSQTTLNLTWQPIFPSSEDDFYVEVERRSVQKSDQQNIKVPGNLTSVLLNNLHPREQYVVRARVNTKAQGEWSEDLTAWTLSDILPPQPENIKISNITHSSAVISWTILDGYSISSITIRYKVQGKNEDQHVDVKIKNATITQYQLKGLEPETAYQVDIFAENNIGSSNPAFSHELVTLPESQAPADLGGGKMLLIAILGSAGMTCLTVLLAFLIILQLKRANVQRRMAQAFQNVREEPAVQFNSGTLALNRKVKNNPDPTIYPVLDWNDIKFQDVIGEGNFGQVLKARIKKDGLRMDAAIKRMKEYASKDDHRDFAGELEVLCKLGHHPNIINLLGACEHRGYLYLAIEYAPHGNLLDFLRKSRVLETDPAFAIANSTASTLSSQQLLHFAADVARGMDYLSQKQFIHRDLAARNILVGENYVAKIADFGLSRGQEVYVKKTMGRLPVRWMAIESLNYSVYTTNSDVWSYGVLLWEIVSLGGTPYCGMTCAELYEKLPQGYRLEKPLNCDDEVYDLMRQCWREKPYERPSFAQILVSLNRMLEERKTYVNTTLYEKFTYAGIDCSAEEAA

The experiment addresses Tie-2 (Homo sapiens, UniProt Q02763). Put plainly: Tie-2 tyrosine kinase activity assay (luciferase/luciferin ATP consumption with pEY substrate, or 33P-ATP incorporation). The settings on record: human enzyme Tie-2. In kind it is biochemical. Here is the method:
One measure of inhibition is Ki. […] The Ki for a compound is determined from the IC50 based on three assumptions. First, only one compound molecule binds to the enzyme and there is no cooperativity. […] Third, the enzymatic rate of the enzyme-inhibitor complex is zero. The rate data (i.e. compound concentration) are fitted to the equation:
[formula] where V is the observed rate, Vmax, is the rate of the free enzyme, I0 is the inhibitor concentration, E0 is the enzyme concentration, and Kd is the dissociation constant of the enzyme-inhibitor complex.
Tyrosine kinase activity is determined by 1) measurement of kinase-dependent ATP consumption by in the presence of a generic substrate such as […], tyrosine (pEY), by luciferase/luciferin-mediated chemiluminescence or; 2) incorporation of radioactive phosphate derived from ^33P-ATP into a generic substrate which has been adsorbed onto the well surface of polystyrene microtiter plates. Phosphorylated substrate products are quantified by scintillation spectrometry.
Inhibition is indicated as IC50 with following key: A=IC50 less than 50 nM, B=IC50 greater than 50 nM, but less than or equal to 1000 nM, C=IC50 greater than 1000 nM, but less than 10,000 nM, D=IC50 10,000 nM or greater, and “-”=no data available. The abbreviation for human enzyme, Tie-2, is defined as tyrosine kinase with immunoglobulin and EGF repeats.
As for `CCc1cccc(NC(=O)N2CCN(c3nc4ccccc4nc3OCc3ccncc3)CC2C)c1` (stereo not shown) [Example 95, N-(3-ethylphenyl)-2-methyl-4-{3-[(pyridin-4-ylmethyl)oxy]quinoxalin-2-yl}piperazine-1-carboxamide], the IC50 (as a rule, the midpoint of a concentration-inhibition curve) fell in the range of 50 to 1000 nM. In the case of `CC(C)Nc1nccc(COc2nsnc2N2CCN(C(=O)Nc3cc(C(F)(F)F)cc(C(F)(F)F)c3)CC2)n1` [Example 116, N-[3,5-bis(trifluoromethyl)phenyl]-4-{4-[({2-[(1-methylethyl)amino]pyrimidin-4-yl}methyl)oxy]-1,2,5-thiadiazol-3-yl}piperazine-1-carboxamide] it was 50 to 1000 nM. As for `CC(C)c1cccc(NC(=O)N2CCN(c3ncccc3OCc3ccnc(N)n3)CC2)c1` [Example 167, 4-(3-{[(2-aminopyrimidin-4-yl)methyl]oxy}pyridin-2-yl)-N-[3-(1-methylethyl)phenyl]piperazine-1-carboxamide], the figure is less than 50 nM; as for `CCc1cccc(NC(=O)N2CCN(c3ncc(Br)cc3OCc3nc(N)ncc3Br)CC2)c1` [Example 194, 4-(3-{[(2-amino-5-bromopyrimidin-4-yl)methyl]oxy}-5-bromopyridin-2-yl)-N-(3-ethylphenyl)piperazine-1-carboxamide], less than 50 nM. In the case of `CCOc1ccccc1NC(=O)N1CCN(c2nsnc2OCc2ccnc(N)n2)CC1` [Example 264, 4-(4-{[(2-aminopyrimidin-4-yl)methyl]oxy}-1,2,5-thiadiazol-3-yl)-N-[2-(ethyloxy)phenyl]piperazine-1-carboxamide] it was no less than 10000 nM. As for `CSc1cccc(NC(=O)N2CCN(c3nsnc3OCc3ccncc3)CC2C)c1` (stereo not shown) [Example 51, 2-methyl-N-[3-(methylthio)phenyl]-4-{4-[(pyridin-4-ylmethyl)oxy]-1,2,5-thiadiazol-3-yl}piperazine-1-carboxamide], the IC50 was in the range of 50 to 1000 nM. As for `O=C(Nc1cc(C(F)(F)F)cc(C(F)(F)F)c1)C1CCN(c2nsnc2OCc2ccncc2)CC1` [Example 36, N-[3,5-bis(trifluoromethyl)phenyl]-1-{4-[(pyridin-4-ylmethyl)oxy]-1,2,5-thiadiazol-3-yl}piperidine-4-carboxamide], the figure is 50 to 1000 nM. In turn, `Nc1nccc(COc2nsnc2N2CCN(C(=O)Nc3cc(Cl)ccc3F)CC2)n1` [Example 257, 4-(4-{[(2-aminopyrimidin-4-yl)methyl]oxy}-1,2,5-thiadiazol-3-yl)-N-(5-chloro-2-fluorophenyl)piperazine-1-carboxamide] had an IC50 of 1000 to 10000 nM. In the case of `O=C(Nc1cc(C(F)(F)F)cc(C(F)(F)F)c1)N1CCN(c2nsnc2OCc2ccnc(F)c2)CC1` [Example 82, N-[3,5-bis(trifluoromethyl)phenyl]-4-(4-{[(2-fluoropyridin-4-yl)methyl]oxy}-1,2,5-thiadiazol-3-yl)piperazine-1-carboxamide] it was 1000 to 10000 nM. As for `CN1CCN(CC(=O)Nc2cc(COc3cccnc3N3CCN(C(=O)Nc4cccc(C(F)(F)F)c4)CC3)ccn2)CC1` [Example 214, 4-(3-{[(2-{[(4-methylpiperazin-1-yl)acetyl]amino}pyridin-4-yl)methyl]oxy}pyridin-2-yl)-N-[3-(trifluoromethyl)phenyl]piperazine-1-carboxamide], the figure is less than 50 nM; as for `C[C@H]1CN(c2nsnc2OCc2ccncc2)CCN1C(=O)Nc1cccc(C(F)(F)F)c1` [Example 58, (2S)-2-methyl-4-{4-[(pyridin-4-ylmethyl)oxy]-1,2,5-thiadiazol-3-yl}-N-[3-(trifluoromethyl)phenyl]piperazine-1-carboxamide], 50 to 1000 nM. In the case of `Nc1nccc(COc2nsnc2N2CCN(C(=O)Nc3cc(F)cc(C(F)(F)F)c3)CC2)n1` [Example 239, 4-(4-{[(2-aminopyrimidin-4-yl)methyl]oxy}-1,2,5-thiadiazol-3-yl)-N-[3-fluoro-5-(trifluoromethyl)phenyl]piperazine-1-carboxamide] it was less than 50 nM; in that of `O=C(Nc1cc(C(F)(F)F)cc(C(F)(F)F)c1)N1CCN(c2nsnc2OCCN2CCOCC2)CC1` [Example 14], no less than 10000 nM. The compound `CNc1cc(COc2nsnc2N2CCNCC2)ccn1` [Example 109, N-methyl-4-{[(4-piperazin-1-yl-1,2,5-thiadiazol-3-yl)oxy]methyl}pyridin-2-amine] showed an IC50 of no less than 10000 nM. As for `Nc1nccc(COc2ccccc2N2CCN(C(=O)Nc3cc(Cl)cc(Cl)c3)CC2)n1` [Example 271, 4-(2-{[(2-aminopyrimidin-4-yl)methyl]oxy}phenyl)-N-(3,5-dichlorophenyl)piperazine-1-carboxamide], the figure is less than 50 nM. As to `O=C(Nc1cc(C(F)(F)F)cc(C(F)(F)F)c1)N1CCN(c2nsnc2OCc2ccnc(Cl)c2)CC1` [Example 83, N-[3,5-bis(trifluoromethyl)phenyl]-4-(4-{[(2-chloropyridin-4-yl)methyl]oxy}-1,2,5-thiadiazol-3-yl)piperazine-1-carboxamide], the IC50 was in the range of 1000 to 10000 nM. In the case of `CCc1cc(CC)cc(NC(=O)N2CCN(c3nsnc3OCc3ccnc(N)n3)CC2)c1` [Example 242, 4-(4-{[(2-aminopyrimidin-4-yl)methyl]oxy}-1,2,5-thiadiazol-3-yl)-N-(3,5-diethylphenyl)piperazine-1-carboxamide] it was less than 50 nM; in that of `O=C(Nc1cccc(C(F)(F)F)c1)NC1CCN(c2nsnc2OCc2ccncc2)C1` (stereo not shown) [Example 49, N-(1-{4-[(pyridin-4-ylmethyl)oxy]-1,2,5-thiadiazol-3-yl}pyrrolidin-3-yl)-N′-[3-(trifluoromethyl)phenyl]urea], 1000 to 10000 nM; in that of `CC(C)[C@H]1CC[C@H](C)C[C@@H]1OCC(=O)N1CCN(c2nsnc2OCc2ccncc2)CC1` [Example 24], 1000 to 10000 nM. In the case of `Nc1nccc(COc2nsnc2N2CCN(C(=O)Cc3ccc4ccccc4c3)CC2)n1` [Example 280, 4-[({4-[4-(naphthalen-2-ylacetyl)piperazin-1-yl]-1,2,5-thiadiazol-3-yl}oxy)methyl]pyrimidin-2-amine] it was no less than 10000 nM; in that of `O=C(NCC1CCN(c2nsnc2OCc2ccncc2)CC1)Nc1cc(C(F)(F)F)cc(C(F)(F)F)c1` [Example 28], 50 to 1000 nM. Consider `Nc1nccc(COc2nsnc2N2CCN(C(=O)Nc3cc(Cl)cc(C(F)(F)F)c3)CC2)n1` [Example 240, 4-(4-{[(2-aminopyrimidin-4-yl)methyl]oxy}-1,2,5-thiadiazol-3-yl)-N-[3-chloro-5-(trifluoromethyl)phenyl]piperazine-1-carboxamide], for which the concentration for half-maximal inhibition (IC50) was less than 50 nM. On to `O=C(CN1CCCCC1)Nc1cc(COc2nsnc2N2CCN(C(=O)Nc3cc(C(F)(F)F)cc(C(F)(F)F)c3)CC2)ccn1` [Example 152, N-[3,5-bis(trifluoromethyl)phenyl]-4-{4-[({2-[(piperidin-1-ylacetyl)amino]pyridin-4-yl}methyl)oxy]-1,2,5-thiadiazol-3-yl}piperazine-1-carboxamide], for which the IC50 was in the range of 50 to 1000 nM. As for `O=C(CN1CCOCC1)Nc1cc(COc2nsnc2N2CCN(C(=O)Nc3cc(C(F)(F)F)cc(C(F)(F)F)c3)CC2)ccn1` [Example 151, N-[3,5-bis(trifluoromethyl)phenyl]-4-{4-[({2-[(morpholin-4-ylacetyl)amino]pyridin-4-yl}methyl)oxy]-1,2,5-thiadiazol-3-yl}piperazine-1-carboxamide], the figure is less than 50 nM; as for `CCc1cc(Cl)cc(NC(=O)N2CCN(c3ccccc3OCc3ccnc(N)n3)CC2)c1` [Example 281, 4-(2-{[(2-aminopyrimidin-4-yl)methyl]oxy}phenyl)-N-(3-chloro-5-ethylphenyl)piperazine-1-carboxamide], less than 50 nM; as for `O=C(Nc1cc(C(F)(F)F)cc(C(F)(F)F)c1)N1CCN(c2nsnc2OCc2ccncc2)CC1` [Example 2], less than 50 nM. As for `Nc1nccc(COc2nccnc2N2CCN(C(=O)Nc3cc(Cl)cc(C(F)(F)F)c3)CC2)n1` [Example 234, 4-(3-{[(2-aminopyrimidin-4-yl)methyl]oxy}pyrazin-2-yl)-N-[3-chloro-5-(trifluoromethyl)phenyl]piperazine-1-carboxamide], the figure is less than 50 nM; as for `Nc1nccc(COc2nsnc2N2CCN(C(=O)Nc3cc(C(F)(F)F)ccc3Cl)CC2)n1` [Example 262, 4-(4-{[(2-aminopyrimidin-4-yl)methyl]oxy}-1,2,5-thiadiazol-3-yl)-N-[2-chloro-5-(trifluoromethyl)phenyl]piperazine-1-carboxamide], 50 to 1000 nM; as for `CC(=O)Nc1nccc(COc2nsnc2N2CCN(C(=O)Nc3cc(C(F)(F)F)cc(C(F)(F)F)c3)CC2)n1` [Example 124, 4-[4-({[2-(acetylamino)pyrimidin-4-yl]methyl}oxy)-1,2,5-thiadiazol-3-yl]-N-[3,5-bis(trifluoromethyl)phenyl]piperazine-1-carboxamide], less than 50 nM.

As for `CN1CCN(CC(=O)Nc2cc(COc3cccnc3N3CCN(C(=O)Nc4cc(Cl)cc(C(F)(F)F)c4)CC3)ccn2)CC1` [Example 233, N-[3-chloro-5-(trifluoromethyl)phenyl]-4-(3-{[(2-{[(4-methylpiperazin-1-yl)acetyl]amino}pyridin-4-yl)methyl]oxy}pyridin-2-yl)piperazine-1-carboxamide], the IC50 is less than 50 nM. As for `CNC(=O)N1CCN(c2ncccc2OCc2ccnc(N)n2)CC1` [Example 204, 4-(3-{[(2-aminopyrimidin-4-yl)methyl]oxy}pyridin-2-yl)-N-methylpiperazine-1-carboxamide], the figure is no less than 10000 nM.
